Results on one substance are retold here after patent US20190015379A1, “USE OF DIANHYDROGALACTITOL AND ANALOGS AND DERIVATIVES THEREOF, TOGETHER WITH RADIATION, TO TREAT NON-SMALL-CELL CARCINOMA OF THE LUNG AND GLIOBLASTOMA MULTIFORME AND SUPPRESS PROLIFERATION OF CANCER STEM CELLS” (DelMar Pharmaceuticals, Inc., priority 2014, published 2019).

In data set [1] the test system is CSC and non-CSC cultures derived from primary GBM tissue. Description: Cell cycle analysis (propidium iodide staining, FACS) in primary GBM cultures. The class given is cell-based, human. As to the method: “GAPDH” refers to glyceraldehyde-3-phosphate dehydrogenase as a control. For the cell cultures, CSCs were cultured in NSA media supplemented with B27, EGF and bFGF. Non-CSCs were grown in DMEM:F12 with 10% FBS. MGMT methylation and protein expression analysis of each culture was characterized. TMZ or VAL-083 was added to the cultures in the indicated concentrations. Depending on the experiment, cells were also irradiated with 2 Gy in a Cesium irradiator. For assays, cell cycle analysis was performed with Propidium Iodide staining and FACs analysis. Cell viability was analyzed with CellTiter-Glo™ and read on a Promega GloMax™. […] In FIG. 4, “1° GBM” refers to primary glioblastoma multiforme cell cultures.
In FIG. 16, cells were treated with either increasing doses of TMZ (5, 50 100 and 200 μM) or dianhydrogalactitol (“VAL-083”) (1, 5, 25 and 100 μM) and cell cycle analysis was performed 4 days post treatment.
Additional experiments were performed to test the effect of the duration of drug administration. […] Dianhydrogalactitol was left on for the duration of the treatment.

Data set [2] can be described thus: Stability of reconstituted dianhydrogalactitol stock solution. The format is physicochemical. To be noted: 8 mg/mL in 0.9% sodium chloride for injection. As to the method: Dianhydrogalactitol (DAG) was provided as a lyophilized product at 40 mg of DAG per vial. For administration, 5 mL of 0.9% sodium chloride for injection, USP (saline) was added to yield a DAG solution with a concentration of 8 mg/mL. This stock solution was stable for 4 hours at room temperature or for 24 hours at 4° C. Further dilutions were made to prepare solutions of injection of 0.9 mg/mL (for administration of 0.18 mg/mouse in 0.2 mL; diluted from the 8 mg/mL reconstituted solution); of 0.45 mg/mL (for administration of 0.09 mg/mouse in 0.2 mL; a 1 to 2 dilution of the 0.9 mg/mL solution); and of 0.225 mg/mL (for administration of 0.045 mg/mouse in 0.2 mL; a 1 to 2 dilution of the 0.45 mg/mL solution).

Data set [3] is described as follows: Tolerability in A549 tumor-bearing Rag2 mice (body weight, CBC, clinical observations). How it is done:
Tumor growth was monitored by measuring tumor dimensions with calipers beginning on the first day of treatment. Tumor length and width measurements were obtained each Monday, Wednesday, and Friday. Tumor volumes were calculated according to the equation L×W^2/2 with the length (in mm) being defined as the longer axis of the tumor. Animals were weighed at the time of tumor measurement. Tumors were allowed to grow to a maximum of 800 mm^3 before termination.
All animals had blood collected by cardiac puncture at termination for CBC (complete blood count) with differentiation.
In particular, signs of ill-health were based on body weight loss, change in appetite, and behavioral signs such as altered gait, lethargy, and gross manifestations of stress. If signs of severe toxicity or tumor-related illness were seen, the animals were terminated by isoflurane overdose followed by CO2 asphyxiation, and a necropsy was performed to assess other signs of toxicity. The following organs were examined: liver, gall bladder, spleen, lung, kidney, heart, intestine, lymph nodes, and bladder. Any unusual findings were noted.

In data set [4] the test system is progressive secondary brain tumor. Nature of the data set: Phase I/II dose-escalation study, tumor response in secondary brain tumor patients. The class given is in vivo, human. To be noted: n = 6. The source says:
The methodology of the study reported in this Example is as follows: An open-label, single arm Phase I/II dose-escalation study designed to evaluate the safety, tolerability, pharmacokinetics and anti-tumor activity of dianhydrogalactitol in patients with: (i) histologically confirmed initial diagnosis of primary WHO Grade IV malignant GBM, now recurrent, or (ii) progressive secondary brain tumor, having failed standard brain radiotherapy, and with brain tumor progression after at least one line of systemic therapy. The study utilizes a 3+3 dose escalation design, until the MTD or the maximum specified dose is reached. Patients receive dianhydrogalactitol intravenously at the assigned dose on days 1, 2, and 3 of each 21-day treatment cycle. In Phase II, additional patients will be treated at the MTD (or other selected optimum Phase II dose) to measure tumor responses. All patients enrolled have previously been treated with surgery and/or radiation, if appropriate, and must have failed both bevacizumab and TMZ, unless contraindicated. For these studies, the following is a summary of the inclusion criteria: (1) Patients must be greater than or equal to 18 years old. […]
Enrollment and evaluation of Cohort 7 (40 mg/m^2) is ongoing. […] Tumor volume is assessed during the study based on RANO criteria. […]

Take dianhydrogalactitol: the “cell death, concentration compared with temozolomide” value in data set [1] (CSC and non-CSC cultures, FACS profiles (FIGS. 7-9)) is “cause cell death at lower concentrations than temozolomide”. Further, the “cell cycle arrest in TMZ-resistant cultures” value in data set [1] (VAL-083 1, 5, 25 and 100 μM, cell cycle analysis 4 days post treatment, paired CSC and non-CSC) is recorded as “exhibited sensitivity to VAL-083, even at single-micromolar doses”. Besides, the “cell cycle arrest and loss of cell viability, summary” value in data set [1] (all cultures tested, independent of MGMT status and stem versus non-stem) was “cell cycle arrest and loss of cell viability in nearly all cultures tested”. Further, the “effect of duration of drug exposure on cell cycle” value in data set [1] (washed out after 3 hours versus left on, 7996 GNS, 8279 GNS, 7996 ML, 8565 ML) was “less effect when washed out after 3 hours”. For the same substance, the “stability of stock solution” value in data set [2] (4° C.) turned out to be 24 h; in data set [2] (room temperature), 4 h. Moreover, the body weight loss entry in data set [3] (dianhydrogalactitol 6 mg/kg (group 5)) is given as “body weight loss was observed”. In data set [3] (dianhydrogalactitol 6 mg/kg, only 3 of 9 scheduled doses administered), the “tolerability of the dosage” value was “significant weight loss and morbidity”. Also, in data set [3] (groups 4 or 5 (dianhydrogalactitol 3 or 6 mg/kg)), the “hemoglobin (g/L), CBC at termination, versus untreated control” value is given as “Statistical significance (p<0.05)”. Besides, the “Tumor Response, Overall” value in data set [4] (secondary brain tumors (breast adenocarcinoma 2, small-cell lung carcinoma 3, melanoma 1)) is “Overall = 17%”. Further, in data set [4] (secondary brain tumors), the “Tumor Response, SD (number of patients)” value was “SD (1)”.
